These results are taken from US20090130020A1, “DIAGNOSTIC AGENTS FOR POSITRON EMISSION IMAGING USING F-18 RADIO-LABELED AMINO-ALCOHOLS” (priority 2007, published 2009).

One data set concerns tumor. The note with it: bio-distribution studies; cited from earlier work.
For data set [1], the system named is lung cancer cell line A549. Briefly: Uptake of [F-18]-labeled compounds into tumor cells. It counts as cell-based. As to conditions: 5×10^6 cells, 0.5 MBq, time point not given. As to the method:
(§1) The uptake of [F-18]-labeled compounds was investigated by incubating 5×10^6 cells in 350 μl incubation buffer with 0.5 MBq [F-18]-labeled compound and taking aliquots at the various time points. The aliquots were transferred into oil, centrifuged shortly to separate cells from free compounds. The tubes were frozen, the cell pellet in the tip of the tube was cut off and radioactivity was measured in a gamma counter.

Data set [2] concerns colon cancer cell line HCT-116. The description is as above. It counts as cell-based. The note with it: 5×10^6 cells, 0.5 MBq, time point not given. As to the method:
as §1

A further data set relates to PC-3 prostate cell line. Described as above. It counts as cell-based. As to conditions: 5×10^6 cells, 0.5 MBq, time point not given. As to the method: as §1
The test system of the next data set is melanoma cell line A375. The data set is described as above. In kind it is cell-based. The note with it: 5×10^6 cells, 0.5 MBq, time point not given. As to the method: as §1
In data set [3] the test system is DU-145 prostate cell line. Described as above. In kind it is cell-based. The note with it: 5×10^6 cells, 0.5 MBq, time point not given. As for the experimental part: as §1
Data set [4] relates to tumor cells lines A375, PC-3, HCT-116, A549 and DU-145. The experiment in a line: Time dependent uptake of [F-18]-labeled compounds, all cell lines together. It counts as cell-based. As for the experimental part: as §1
FIG. 7: Time dependent uptake of [F-18]-Fluoroethyl-Choline (FE-Ch) into the tumor cells lines A375, PC-3, HCT-116, A549 and DU-145.
FIG. 8: Time dependent uptake of [F-18]-Fluoroethyl-N-Methyl-Ethanolamine into the tumor cells lines A375, PC-3, HCT-116, A549 and DU-145.
FIG. 9: Time dependent uptake of [F-18]-Fluoroethyl-N-Ethyl-Ethanolamine into the tumor cells lines A375, PC-3, HCT-116, A549 and DU-145.
FIG. 10: Time dependent uptake of [F-18]-Fluoropropyl-N-Methyl-Ethanolamine into the tumor cells lines A375, PC-3, HCT-116, A549 and DU-145.

For [C-14]dimethyl-ethanolamine, the “tumor uptake in bio-distribution” value with tumor is “tumor uptake”.
Turning to `CN(CCO)CC[18F]` [[F-18]-Fluoroethyl-N-Methyl-Ethanolamine, [F-18]2-[(2-Fluoro-ethyl)-methyl-amino]-ethanol], the uptake in data set [1] worked out at 17%; in data set [2], 29%; with PC-3 prostate cell line, 25.5%; with melanoma cell line A375, 22%; in data set [3], 20.5%. Further, in data set [4] (after 30 min, across the cell lines (FIG. 8)), the “uptake after 30 min” value was 17-30%.
As for “[C-14]ethanolamine [[C-14] derivative of ethanolamine (1)]”, the “tumor uptake in bio-distribution” value in the data set on tumor was “tumor uptake”.
For `C[N+](C)(CCO)CC[18F]` [FE-Ch, [F-18]-Fluoroethyl-Choline], the uptake in data set [1] is reported as 4%; in data set [2] it was 4%; in the data set on PC-3 prostate cell line, 6.5%; in the data set with melanoma cell line A375 it was 4%; in data set [3], 3%. The “maximum value of uptake reached after 60 min” value in data set [4] (after 60 min, all cell lines) is 5-10%. Further, the “course of uptake over time” value in data set [4] (over the 60 minutes investigated) is “slowly linear increasing”.
